Source: patent publication US20110028409A1, “DETECTION OF ANTI-RIBOSOMAL P PROTEIN ANTIBODIES BY MEANS OF SYNTHETIC PEPTIDES” (TOSCANA BIOMARKERS S.R.L., priority 2009, published 2011)
Ends that are not written are not given here.

Experiments:
[1] = system: anti-ribosomal P protein antibodies (IgG) in serum samples; experiment: Antibody detection by covalent ELISA (peptide covalently linked to plate); format: binding, human; settings: for healthy donor positive sera (%): 6 healthy donor sera diluted 1:100; for SLE positive sera (%): 8 SLE sera diluted 1:100; for SLE positive sera (positive/tested): SLE sera diluted 1:100; for healthy donor positive sera (positive/tested): healthy donor sera diluted 1:100
Description: A peptide, prepared as described in example 1, was covalently linked to a 96-wells microtitre plate (carboxy or amine binding plate) using sulfo-N-hydroxysuccinimide and 1-ethyl-3-(3-dimethylaminopropyl)carbodiimide. Peptide coupling took place for 2 h at r.t. The plate was blocked for 1 h with 5% FBS in PBS or with 0.5 M Gly (pH 8). The patients serum samples were diluted 1:100 in FBS buffer and were then loaded onto the plate for 1.5 h at r.t. After plate washings, an anti human-IgG antibody conjugated to the enzyme alkaline phosphatase was added and incubated for 1.5 h at r.t. After washings, the alkaline phosphate substrate p-nitrophenyl phosphate was added to the wells. After the quenching of the enzymatic reaction with 1 M NaOH, the absorbance was evaluated at a wavelength of 405 nm.

[2] = system: anti-ribosomal P protein antibodies (IgG) in serum samples; experiment: Antibody detection by ELISA (peptide adsorbed onto microtitre plate); format: binding, human
Description: A peptide, prepared as described in example 1 and diluted in 0.05 M carbonate buffer (pH 9.6) or in PBS buffer (pH 7.4) was adsorbed onto 96-wells microtitre plates for 4 h at r.t. The wells were treated for 1 h at r.t. with FBS (FBS 5% in PBS). The patients serum samples (diluted 1:100) were then loaded onto the plate and allowed to react overnight at +4° C. After plate washing, an anti human-IgG antibody conjugated to the enzyme alkaline phosphatase was added and incubated for 3 h at r.t. After washings, the alkaline phosphate substrate p-nitrophenyl phosphate was added to the wells. After the quenching of the enzymatic reaction with 1 M NaOH, the absorbance was evaluated at a wavelength of 405 nm.
In total, 25 serum samples of patients suffering from SLE and 68 serum of healthy blood donors were tested by this method.

[3] = system: SLE specific auto-antibodies in patients sera; settings: literature; cited from earlier work

Substance	healthy donor positive sera (%) [1] [%]	SLE positive sera (%) [1] [%]	SLE positive sera (positive/tested) [1]	healthy donor positive sera (positive/tested) [1]	SLE positive sera (%) ([2]; 25 SLE sera, diluted 1:100, adsorbed peptide)	healthy donor positive sera (%) ([2]; 68 healthy blood donor sera, diluted 1:100, adsorbed peptide)	number of SLE sera negative to peptide 9 in which anti ribosomal antibodies were detected ([2]; SLE serum negative to peptide 9)	number of peptide 9-positive SLE sera showing cross-reactivity with peptide 1 ([2]; among the SLE sera positive to peptide 9)	healthy donor positive sera (positive/tested) ([2]; sera of healthy blood donors, diluted 1:100, adsorbed peptide)	SLE positive sera (positive/tested) ([2]; sera of patients suffering from SLE, diluted 1:100, adsorbed peptide, absorbance 405 nm)	patients sera in which SLE specific auto-antibodies are detected [3]
GVNVEPFWPGL [Peptide 3]	0	12	1/8	0/6	–	–	–	–	–	–	–
LIKAAGVNVEPFWPGLFAKA [Peptide 1, linear peptide derived from the N-terminal region of human ribosomal P1 protein]	0	50	4/8	0/6	32	1	3	4	1/68	8/25	–
PFWPGLFAKA [Peptide 4]	0	12	1/8	0/6	–	–	–	–	–	–	–
NH2-Lys-Lys-Glu-Glu-Lys-Lys-Glu-Glu-Ser-Glu-Glu-Glu-Asp-Glu-Asp-Met-Gly-Phe-Gly-Leu-Phe-Asp-COOH (H-KKEEKKEESEEEDEDMGFGLFD-OH) [Peptide C-22, peptide comprising the last 22 amino acids of ribosomal P proteins]	–	–	–	–	–	–	–	–	–	–	10-20%
LIKAAGVNVE [Peptide 2]	0	37	3/8	0/6	–	–	–	–	–	–	–
